Data: patent US9409952B2, “Peptide-compound cyclization method” (Chugai Seiyaku Kabushiki Kaisha, priority 2011, dated 2016)
Positions of bridges follow the written chain, without caps; N, C: chain ends. Non-standard residues stand in square brackets, D forms with d. Residues, ends and D or L forms follow the SMILES beside them. ξ: configuration not given here. *: point of attachment. Cha = N[C@@H](CC1CCCCC1)C(=O)O; Thr(3ξ) = CC(O)[C@H](N)C(=O)O; NMeA = CN[C@@H](C)C(=O)O; Piperidide = C1CCN(*)CC1

Legend:
[1] = side chain carboxyl group, phenolic hydroxy group or tetrazole; cited from earlier work
[2] = Identification of the metabolic site in mouse liver microsome (LC/MS); type: in vitro ADME; conditions: 10 uM, mouse liver microsome 0.5 mg protein/mL, 1 hour, with NADPH
Description: Compound P-113 cyclized peptide was metabolically reacted at a concentration of 10 uM with a microsome solution prepared at 0.5 mg protein/mL from mouse liver (male, manufactured by XENOTECH, USA) using 100 mM phosphate buffer (pH 7.4) for 1 hour in the presence of NADPH (FIG. 35). After the reaction, deproteinization treatment with acetonitrile was provided, and the resulting metabolites were analyzed with a high resolution LC/MS instrument (Q-TOF Ultima API, manufactured by Waters Corporation, USA). Mass chromatograms of the metabolites are shown below. […] MS/MS spectra of the peaks are shown below, respectively. The metabolites of Peak 1 and Peak 2 were assumed to be hydroxylated in the partial structures containing highly lipophilic side chain cyclohexyl groups. […] The metabolite of Peak 4 was assumed to have a thiol-containing site oxidized. Taking the ease of oxidation of this site into consideration, it was believed that the sulfur atom is likely to be the metabolic site.

Row | Compound | pKa as an acid [1] | metabolites detected [2]
1 | c1nnn[nH]1 [Tetrazole] | 5.6 | 
2 | CC(C)C[C@@H]1NC(=O)CSC[C@@H](C(=O)N[C@@H](CC2CCCCC2)C(=O)N2CCCCC2)NC(=O)[C@H](C)NC(=O)[C@H](C(C)O)NC(=O)[C@H]([C@@H](C)O)NC(=O)[C@H](CC2CCCCC2)NC(=O)[C@H](C)N(C)C1=O (stereo partly drawn) [Compound P-113, Ac*-Leu-MeAla-Cha-Thr-Thr-Ala-Cys*-Cha-piperidine] ({CH2CO}-L[NMeA][Cha]T[Thr(3ξ)]AC[Cha]-Piperidide; thioether N-7) |  | Four peaks corresponding to hydroxides
